{"source": "ChEMBL document CHEMBL5154648", "about": "“Antitumor activity of novel POLA1-HDAC11 dual inhibitors” (Eur J Med Chem, 2022)", "key": {"NCI-H460 [1]": {"system": "NCI-H460", "experiment": "Induction of cell cycle arrest in human NCI-H460 cells assessed as accumulation of cells at S phase at 0.12 uM after 72 hrs by flow cytometry (reference value: 32.1%)", "type": "functional"}, "H460-R9A": {"system": "H460-R9A", "experiment": "Antiproliferative activity against human H460-R9A cells at 0.75 to 12 uM in combination with SIS17 after 72 hrs by MTT assay", "type": "functional, cell-based", "settings": "dose 0.75-12 µM"}, "[2]": {"experiment": "Toxicity in mouse xenografted with human NCI-H460 cells assessed as body weight loss at 20 mg/kg, po qd administered 5 times a week for 3 to 4 weeks", "type": "organism-based", "settings": "in vivo, time 3-4 weeks"}, "NCI-H460 [3]": {"system": "NCI-H460", "experiment": "Induction of cell cycle arrest in human NCI-H460 cells assessed as accumulation of cells at G0/1 phase at 0.26 uM after 72 hrs by flow cytometry (reference value: 46.8%)", "type": "functional"}, "A2780 [4]": {"system": "A2780", "experiment": "Induction of cell cycle arrest in human A2780 cells assessed as accumulation of cells at sub-G1 phase at 0.95 uM after 72 hrs by flow cytometry (reference value: 1.6%)", "type": "functional"}, "MM473 [5]": {"system": "MM473", "experiment": "Induction of cell cycle arrest in human MM473-Luc cells assessed as accumulation of cells at G0/1 phase at 1.4 uM after 72 hrs by flow cytometry (reference value: 74.7%)", "type": "functional"}, "MM473 [6]": {"system": "MM473", "experiment": "Induction of cell cycle arrest in human MM473-Luc cells assessed as accumulation of cells at G2/M phase at 1.4 uM after 72 hrs by flow cytometry (reference value: 11.7%)", "type": "functional"}, "NCI-H460 [7]": {"system": "NCI-H460", "experiment": "Down-regulation of POLA1 mRNA expression in human NCI-H460 cells at 0.26 uM measured by qRT-PCR assay", "type": "functional, cell-based"}, "[8]": {"molecular_target": "T1, Histone deacetylase 11 (Homo sapiens) (UniProt Q96DB2)", "T1 sequence (whole entry)": "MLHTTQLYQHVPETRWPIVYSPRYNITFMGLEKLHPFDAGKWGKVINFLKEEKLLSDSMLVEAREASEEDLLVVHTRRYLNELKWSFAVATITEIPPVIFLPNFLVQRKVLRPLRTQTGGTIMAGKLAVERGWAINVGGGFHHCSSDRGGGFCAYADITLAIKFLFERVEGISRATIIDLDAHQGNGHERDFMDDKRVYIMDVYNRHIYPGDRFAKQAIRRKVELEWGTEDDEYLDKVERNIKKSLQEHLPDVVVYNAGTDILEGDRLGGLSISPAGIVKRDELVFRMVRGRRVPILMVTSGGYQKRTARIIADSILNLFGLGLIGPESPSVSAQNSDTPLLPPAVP", "experiment": "Inhibition of HDAC11 in human MM473 cells at 0.1 to 0.4 uM assessed as induction of p53 acetylation and measured by Western blot analysis", "type": "cell-based", "settings": "dose 0.1-0.4 µM"}, "MM487": {"system": "MM487", "experiment": "Induction of DNA damage in human MM487 cells at 0.1 to 0.4 uM assessed as increase in p-H2AX levels and measured by Western blot analysis", "type": "functional, cell-based", "settings": "dose 0.1-0.4 µM"}, "NCI-H460 [9]": {"system": "NCI-H460", "experiment": "Induction of cell cycle arrest in human NCI-H460 cells assessed as accumulation of cells at sub-G1 phase at 0.25 uM after 72 hrs by flow cytometry (reference value: 1.1%)", "type": "functional"}, "NCI-H460 [10]": {"system": "NCI-H460", "experiment": "Induction of cell cycle arrest in human NCI-H460 cells assessed as accumulation of cells at G0/1 phase at 0.25 uM after 72 hrs by flow cytometry (reference value: 46.8%)", "type": "functional"}, "NCI-H460 [11]": {"system": "NCI-H460", "experiment": "Induction of cell cycle arrest in human NCI-H460 cells assessed as accumulation of cells at S phase at 0.25 uM after 72 hrs by flow cytometry (reference value: 32.1%)", "type": "functional"}, "A2780 [12]": {"system": "A2780", "experiment": "Induction of cell cycle arrest in human A2780 cells assessed as accumulation of cells at sub-G1 phase at 0.6 uM after 72 hrs by flow cytometry (reference value: 1.6%)", "type": "functional"}, "MM473 [13]": {"system": "MM473", "experiment": "Induction of cell cycle arrest in human MM473-Luc cells assessed as accumulation of cells at G0/1 phase at 1.2 uM after 72 hrs by flow cytometry (reference value: 74.7%)", "type": "functional"}, "MM473 [14]": {"system": "MM473", "experiment": "Induction of cell cycle arrest in human MM473-Luc cells assessed as accumulation of cells at S phase at 1.2 uM after 72 hrs by flow cytometry (reference value: 13.7%)", "type": "functional"}, "[15]": {"experiment": "Induction of cell cycle arrest in human H460-R9A cells assessed as accumulation of cells at sub-G1 phase at 2.8 uM after 72 hrs by flow cytometry (reference value: 1.5%)", "type": "functional"}, "[16]": {"experiment": "Induction of cell cycle arrest in human H460-R9A cells assessed as accumulation of cells at G2/M phase at 2.8 uM after 72 hrs by flow cytometry (reference value: 15.4%)", "type": "functional"}, "NCI-H460 [17]": {"system": "NCI-H460", "experiment": "Down-regulation of POLA1 protein expression in human NCI-H460 cells at 0.25 uM measured by Western blot analysis", "type": "functional, cell-based"}}, "note": "The source made the active and inactive calls. No cut-off for these calls is given here."}
{"compound": "O=C(O)C=Cc1ccc(-c2ccc(O)c(C34CC5CC(CC(C5)C3)C4)c2)cc1", "values": [{"measurement": "Activity", "setting": "NCI-H460 [1]", "result": 79.7, "unit": "%"}, {"measurement": "Activity", "setting": "H460-R9A", "result": "Active"}, {"measurement": "Activity", "setting": "[2]", "result": 0, "unit": "%"}]}
{"compound": "CC(Oc1ccc(-c2ccc(C=CC(=O)O)cc2)cc1C12CC3CC(CC(C3)C1)C2)C(=O)NO", "note": "(centres undefined)", "values": [{"measurement": "Activity", "setting": "NCI-H460 [3]", "result": 10.9, "unit": "%"}, {"measurement": "Activity", "setting": "A2780 [4]", "result": 23, "unit": "%"}, {"measurement": "Activity", "setting": "MM473 [5]", "result": 2.3, "unit": "%"}, {"measurement": "Activity", "setting": "MM473 [6]", "result": 16.1, "unit": "%"}, {"measurement": "Activity", "setting": "NCI-H460 [7]", "result": "Active"}]}
{"compound": "O=C(O)C=Cc1ccc(-c2ccc(OCC(=O)NO)c(C34CC5CC(CC(C5)C3)C4)c2)cc1", "values": [{"measurement": "inhibition", "setting": "[8]", "result": "Active"}, {"measurement": "Activity", "setting": "MM487", "result": "Active"}, {"measurement": "Activity", "setting": "NCI-H460 [9]", "result": 12.1, "unit": "%"}, {"measurement": "Activity", "setting": "NCI-H460 [10]", "result": 16.3, "unit": "%"}, {"measurement": "Activity", "setting": "NCI-H460 [11]", "result": 80.9, "unit": "%"}, {"measurement": "Activity", "setting": "A2780 [12]", "result": 33.3, "unit": "%"}, {"measurement": "Activity", "setting": "MM473 [13]", "result": 23, "unit": "%"}, {"measurement": "Activity", "setting": "MM473 [14]", "result": 62.9, "unit": "%"}, {"measurement": "Activity", "setting": "[15]", "result": 37.8, "unit": "%"}, {"measurement": "Activity", "setting": "[16]", "result": 12.9, "unit": "%"}, {"measurement": "Activity", "setting": "NCI-H460 [17]", "result": "Active"}]}
